These results are taken from patent US10570129B2 (Zoetis Services LLC, priority 2015, dated 2020).

For assay [1], the system named is Trichostrongylus colubriformis. The assay is described as follows: Jird efficacy model. In kind it is in vivo. To be noted: for inhibition in vivo at 10 mg/kg: Trichostrongylus colubriformis, sc, 96 h, read-out: Jird % (percentage efficacy).
A further assay relates to D. immitis microfilariae. The assay is described as follows: Dirofilaria immitis, microfilariae (DiMF) in vitro motility assay. In kind it is cell-based. To be noted: for minimal effective concentration: Dirofilaria immitis, 72 h, read-out: DiMF minimally effective dose (MEC).
The next assay relates to Haemonchus contortus L3. The assay is described as follows: microbe, parasite or virus in culture. In kind it is cell-based. To be noted: for minimal effective concentration: Haemonchus contortus, 96 h, read-out: HcL3 Minimal Effective Concentration (MEC).

SMILES strings stand for the structures.

As for `N#Cc1ccc2c3c(n(C(=O)NCc4ccnc(Cl)c4)c2c1)CCN(C/C=C/c1ccc(Cl)cc1Cl)C3` [Example 3, (E)-N-[(2-chloro-4-pyridyl)methyl]-7-cyano-2-[(E)-3-(2,4-dichlorophenyl)allyl]-3,4-dihydro-1H-pyrido[4,3-b]indole-5-carboxamide], the “Jird % (percentage efficacy)” value in assay [1] (Mongolian gerbil (jird) infected with T. colubriformis, 10 mg/kg subcutaneous, worm count approximately four days after dosing) is reported as 99%. For the same molecule, the “DiMF minimally effective dose (MEC)” value in the assay on D. immitis microfilariae (decrease in microfilariae motility by subjective visual assessment, observed at 72 hours) was determined as 18.2 µM. For the same molecule, in the assay with Haemonchus contortus L3, the “HcL3 Minimal Effective Concentration (MEC)” value came out at 1.0 µM.
Turning to `N#Cc1ccc(/C=C/CN2CCc3c(c4ccc(C(F)(F)F)cc4n3C(=O)NCc3ccnc(F)c3)C2)cc1` [Example 164, (E)-2-(3-(4-cyanophenyl)allyl)-N-((2-fluoropyridin-4-yl)methyl)-7-(trifluoromethyl)-1,2,3,4-tetrahydro-5H-pyrido[4,3-b]indole-5-carboxamide], in assay [1], the inhibition in vivo at 10 mg/kg was found to be 100%. Besides, the minimal effective concentration in the assay with D. immitis microfilariae turned out to be 10 µM; in the assay with Haemonchus contortus L3, 3.3 µM.
As to `N#Cc1ccc2c3c(n(C(=O)NCc4ccnc(Cl)c4)c2c1)CCN(C/C=C/c1ccc(Cl)c(F)c1)C3` [Example 2, (E)-2-(3-(4-chloro-3-fluorophenyl)allyl)-N-((2-chloropyridin-4-yl)methyl)-7-cyano-1,2,3,4-tetrahydro-5H-pyrido[4,3-b]indole-5-carboxamide], in assay [1], the inhibition in vivo at 10 mg/kg turned out to be 100%. Moreover, the minimal effective concentration was found to be 4.8 µM in the assay on D. immitis microfilariae and 1.6 µM in the assay with Haemonchus contortus L3.
Consider `O=C(NCc1ccnc(F)c1)n1c2c(c3ccc(OC(F)(F)F)cc31)CN(C/C=C/c1ccc(F)cc1F)CC2` [Example 374, (E)-2-(3-(2,4-difluorophenyl)allyl)-N-((2-fluoropyridin-4-yl)methyl)-7-(trifluoromethoxy)-1,2,3,4-tetrahydro-5H-pyrido[4,3-b]indole-5-carboxamide], for which the inhibition in vivo at 10 mg/kg in assay [1] was 72%. For the same molecule, the minimal effective concentration in the assay with D. immitis microfilariae and in the assay with Haemonchus contortus L3 was 5.7 µM throughout.
As to `N#Cc1ccc2c(c1)c1c(n2C(=O)NCc2ccnc(F)c2)CCN(C/C=C/c2ccc(F)cc2)C1` [Example 123, (E)-8-cyano-2-(3-(4-fluorophenyl)allyl)-N-((2-fluoropyridin-4-yl)methyl)-1,2,3,4-tetrahydro-5H-pyrido[4,3-b]indole-5-carboxamide], in assay [1], the inhibition in vivo at 10 mg/kg is 100%. Further, the figures for the minimal effective concentration with D. immitis microfilariae and in the assay with Haemonchus contortus L3 were 10 µM and 0.3 µM, respectively.
Turning to `N#Cc1ccc2c(c1)c1c(n2C(=O)NCc2ccnc(F)c2)CCN(C/C=C/c2ccc(F)cc2F)C1` [Example 115, (E)-8-cyano-2-(3-(2,4-difluorophenyl)allyl)-N-((2-fluoropyridin-4-yl)methyl)-1,2,3,4-tetrahydro-5H-pyrido[4,3-b]indole-5-carboxamide], the inhibition in vivo at 10 mg/kg in assay [1] is 100%. Further, the minimal effective concentration in the assay on D. immitis microfilariae is 3.3 µM; with Haemonchus contortus L3, 0.1 µM.
For the molecule `O=C(NCc1ccnc(F)c1)n1c2c(c3cc(C(F)(F)F)ccc31)CN(C/C=C/c1ccc(Cl)cc1)CC2` [Example 421, (E)-2-(3-(4-chlorophenyl)allyl)-N-((2-fluoropyridin-4-yl)methyl)-8-(trifluoromethyl)-1,2,3,4-tetrahydro-5H-pyrido[4,3-b]indole-5-carboxamide], in assay [1], the inhibition in vivo at 10 mg/kg was found to be 100%. The figures for the minimal effective concentration in the assay with D. immitis microfilariae and in the assay on Haemonchus contortus L3 were 12.7 µM and 3.3 µM, respectively.
In the same order, the values of `N#Cc1ccc(/C=C/CN2CCc3c(c4ccc(C(F)(F)F)cc4n3C(=O)NCc3ccnc(Cl)c3)C2)cc1` [Example 155, (E)-N-((2-chloropyridin-4-yl)methyl)-2-(3-(4-cyanophenyl)allyl)-7-(trifluoromethyl)-1,2,3,4-tetrahydro-5H-pyrido[4,3-b]indole-5-carboxamide] are 100%, 22.6 µM and 1 µM.
Taken in the same sequence, the figures for `O=C(NCc1ccnc(Cl)c1)n1c2c(c3cc(F)c(Cl)cc31)CN(C/C=C/c1ccc(F)cc1)CC2` [Example 306, (E)-7-chloro-N-((2-chloropyridin-4-yl)methyl)-8-fluoro-2-(3-(4-fluorophenyl)allyl)-1,2,3,4-tetrahydro-5H-pyrido[4,3-b]indole-5-carboxamide] were 98%, 12.7 µM and 0.5 µM.
Taken in the same sequence, the figures for `N#Cc1ccc(/C=C/CN2CCc3c(c4cc(F)c(OC(F)(F)F)cc4n3C(=O)NCc3ccnc(Cl)c3)C2)cc1` [Example 470, (E)-N-((2-chloropyridin-4-yl)methyl)-2-(3-(4-cyanophenyl)allyl)-8-fluoro-7-(trifluoromethoxy)-1,2,3,4-tetrahydro-5H-pyrido[4,3-b]indole-5-carboxamide] were 100%, 13.5 µM and 1 µM.
As for `N#Cc1ccc(/C=C/CN2CCc3c(c4cc(OC(F)(F)F)ccc4n3C(=O)NCc3ccnc(Cl)c3)C2)cc1` [Example 390, (E)-N-((2-chloropyridin-4-yl)methyl)-2-(3-(4-cyanophenyl)allyl)-8-(trifluoromethoxy)-1,2,3,4-tetrahydro-5H-pyrido[4,3-b]indole-5-carboxamide], the inhibition in vivo at 10 mg/kg in assay [1] amounted to 100%. The minimal effective concentration with D. immitis microfilariae turned out to be 18.2 µM; in the assay with Haemonchus contortus L3 it was 0.5 µM.
Taken in the same sequence, the figures for `O=C(NCc1ccnc(Cl)c1)n1c2c(c3ccc(Cl)cc31)CN(C/C=C/c1ccc(F)c(F)c1)CC2` [Example 211, (E)-7-chloro-N-((2-chloropyridin-4-yl)methyl)-2-(3-(3,4-difluorophenyl)allyl)-1,2,3,4-tetrahydro-5H-pyrido[4,3-b]indole-5-carboxamide] were 100%, 10 µM and 1 µM.
Consider `O=C(NCc1ccnc(Cl)c1)n1c2c(c3ccc(OC(F)(F)F)cc31)CN(C/C=C/c1ccc(F)cc1)CC2` [Example 356, (E)-N-((2-chloropyridin-4-yl)methyl)-2-(3-(4-fluorophenyl)allyl)-7-(trifluoromethoxy)-1,2,3,4-tetrahydro-5H-pyrido[4,3-b]indole-5-carboxamide], for which the inhibition in vivo at 10 mg/kg in assay [1] stood at 100%. The minimal effective concentration came to 3.8 µM in the assay on D. immitis microfilariae and 0.6 µM in the assay on Haemonchus contortus L3.
In the same order, the values of `O=C(NCc1ccnc(Cl)c1)n1c2c(c3cc4c(cc31)COC4)CN(C/C=C/c1ccc(F)cc1)CC2` [Example 481, (E)-N-((2-chloropyridin-4-yl)methyl)-8-(3-(4-fluorophenyl)allyl)-1,3,6,7,8,9-hexahydro-5H-furo[3,4-f]pyrido[4,3-b]indole-5-carboxamide] are 99%, 3.3 µM and 0.3 µM.
As for `N#Cc1ccc2c(c1)c1c(n2C(=O)NCc2ccnc(C(F)(F)F)c2)CCN(C/C=C/c2ccc(Cl)cc2F)C1` [Example 128, (E)-2-(3-(4-chloro-2-fluorophenyl)allyl)-8-cyano-N-((2-(trifluoromethyl)pyridin-4-yl)methyl)-1,2,3,4-tetrahydro-5H-pyrido[4,3-b]indole-5-carboxamide], the inhibition in vivo at 10 mg/kg in assay [1] is 100%. The results for the minimal effective concentration in the assay with D. immitis microfilariae and in the assay with Haemonchus contortus L3 were 0.7 µM and 0.1 µM, respectively.
